Test results: PMC8397425, “A Strategy to Conjugate Bioactive Fragments to Cytotoxic Diiron Bis(cyclopentadienyl) Complexes” (Organometallics, 2021)

Experiments:
[1] = test system: Human Ovarian Carcinoma (A2780) cell line; experiment: MTT cytotoxicity, A2780; type: cell-based; details: for IC50: 72 h exposure, MTT, mean ± SD
From the text: (§1) Human ovarian carcinoma (A2780 and A2780cisR) cell lines were obtained from the European Collection of Cell Cultures. The Human Embryonic Kidney 293T (HEK 293T) cell line was obtained from the ATCC (Sigma, Buchs, Switzerland). Penicillin–streptomycin, RPMI 1640 GlutaMAX (where RPMI = Roswell Park Memorial Institute), and DMEM GlutaMAX media (where DMEM = Dulbecco’s modified Eagle medium) were obtained from Life Technologies, and fetal bovine serum (FBS) was obtained from Sigma. The cells were cultured in RPMI 1640 GlutaMAX (A2780 and A2780cisR) and DMEM GlutaMAX (HEK 293T) media containing 10% heat-inactivated FBS and 1% penicillin–streptomycin at 37 °C and CO2 (5%). The A2780cisR cell line was routinely treated with cisplatin (2 μM) in the media to maintain cisplatin resistance. The cytotoxicity was determined using the 3-(4,5-dimethyl-2-thiazolyl)-2,5-diphenyl-2H-tetrazolium bromide (MTT) assay.[42] Cells were seeded in flat-bottomed 96-well plates as a suspension in a prepared medium (100 μL aliquots and approximately 4300 cells/well) and preincubated for 24 h. Stock solutions of compounds were prepared in DMSO and were diluted in the medium. The solutions were sequentially diluted to give a final DMSO concentration of 0.5% and a final compound concentration range of 0–200 μM. Cisplatin was tested as a positive (0–100 μM) control. The compounds were placed in the preincubated 96-well plates in 100 μL aliquots, and the plates were incubated for a further 72 h. MTT (20 μL, 5 mg/mL in Dulbecco’s phosphate buffered saline) was placed in the cells, and the plates were incubated for a further 4 h. The culture medium was aspirated, and the purple formazan crystals, formed by the mitochondrial dehydrogenase activity of vital cells, were dissolved in DMSO (100 μL/well). The absorbance of the resulting solutions, directly proportional to the number of surviving cells, was quantified at 590 nm using a SpectroMax M5e multimode microplate reader (using SoftMax Pro software, version 6.2.2). The percentage of surviving cells was calculated from the absorbance of wells corresponding to the untreated control cells. The reported IC50 values are based on the means from two independent experiments, each comprising four tests per concentration level.

[2] = test system: Human Ovarian Carcinoma Cisplatin Resistant (A2780cisR) cell line; experiment: MTT cytotoxicity, A2780cisR; type: cell-based; details: 72 h exposure, mean ± SD
From the text: as §1

[3] = test system: Human Embryonic Kidney 293T (HEK 293T) cell line; experiment: MTT cytotoxicity, HEK 293T; type: cell-based; details: 72 h exposure, mean ± SD
From the text: as §1

[4] = test system: natural double-stranded DNA from calf thymus; experiment: Ethidium bromide (EB) exchange test with DNA; type: binding; details: NaCl 0.1 M, NaCac 0.01 M, T = 25 °C; complex 1.4–135 μM
Description: The ability of [4]CF3SO3 and [9]CF3SO3 to interact with natural DNA was studied using the ethidium bromide (EB) exchange test (Figure 6), with the concentration of the complexes beingin the 1.5–124 μM range for [4]CF3SO3 and 1.4–135 μM for [9]CF3SO3. Blank experiments were carried out with the two bioactive molecules and also with DMSO to check for solvent/dilution effects. […] However, EB exchange titrations are suitable to recognize fast noncovalent binding events, but not subsequent slow covalent binding. […]
Ethidium bromide (EB, ≥98.0%), bovine serum albumin (BSA, lyophilized powder, crystallized, ≥98.0%), and natural double-stranded DNA from calf thymus (DNA, lyophilized powder, Na^+ salt in the form of fibers) were purchased from Merck, while anhydrous guanosine 5′-monophosphate disodium salt (Na2[GMP], >98.0%) was purchased from TCI Chemicals. […] Molar concentrations of solutions of EB (CEB), BSA (CBSA), and DNA (CDNA) were determined by absorbance measurements (εEB^480 nm = 5700 M^–1 cm^–1; εBSA^278 nm = 44000 M^–1 cm^–1; εDNA^260 nm = 13200 M^–1 cm^–1 for a concentration expressed in base pairs). […] In EB/DNA exchange experiments, EB was added to DNA until the fluorescence emission at λex = 520 nm/λem = 595 nm (diagnostic wavelengths for the DNA-intercalated EB only) started to reach the plateau (CEB = 5.60 × 10^–5 M, CDNA = 1.15 × 10^–4 M). […]

Substance | IC50 [1] | IC50 [2] | IC50 [3] | interaction with natural DNA (EB displacement) [4] | selectivity (SI) ([1]; HEK 293T relative to A2780)
[Fe2Cp2(CO)(μ-CO){μ-η^1:η^3-Cγ(3-C6H4OC(=O)C6H4OC(=O)Me)CβHCαNMe(Xyl)}]CF3SO3 [[4]CF3SO3] | 2.8 ± 0.4 µM | 2.6 ± 0.4 µM | 3.8 ± 0.7 µM | interact weakly with natural DNA | 
[Fe2Cp2(CO)(μ-CO){μ-η^1:η^3-Cγ(3-C6H4NHC(=O)(CH2)3C6H4N(CH2CH2Cl)2)CβHCαNMe2}]CF3SO3 [[9]CF3SO3] | 1.8 ± 0.3 µM | 3.8 ± 0.3 µM | 9 ± 3 µM | interact weakly with natural DNA | 5
